Common to all, as to assay type: organism-based
Assay [1] deals with T1, D(2) dopamine receptor (Rattus norvegicus, UniProt P61169). As to the kind of experiment: In vivo inhibitory activity against dopamine (D2) receptor in rat caudate-putamen tissue.
For assay [2], the target named is T2, D(1A) dopamine receptor (Rattus norvegicus, UniProt P18901). As to the kind of experiment: In vivo inhibitory activity against dopamine (D1) receptor in rat caudate-putamen tissue.
Assay [3] addresses T2, D(1A) dopamine receptor. As to the kind of experiment: In vivo binding affinity against dopamine (D1) receptor in rat caudate-putamen tissue using [3H]SCH-23390 as radioligand.
In assay [4] the target is T1, D(2) dopamine receptor. Kind of assay: In vivo binding affinity against dopamine (D2) receptor in rat caudate-putamen tissue using [3H]nemonapride as radioligand.

IC50 data for three molecules are collected here from ChEMBL document CHEMBL1144983, “Synthesis and affinity of a possible byproduct of electrophilic radiolabeling of [123I]IBZM” (Bioorg Med Chem Lett, 2003).

T1 sequence (P61169 whole entry): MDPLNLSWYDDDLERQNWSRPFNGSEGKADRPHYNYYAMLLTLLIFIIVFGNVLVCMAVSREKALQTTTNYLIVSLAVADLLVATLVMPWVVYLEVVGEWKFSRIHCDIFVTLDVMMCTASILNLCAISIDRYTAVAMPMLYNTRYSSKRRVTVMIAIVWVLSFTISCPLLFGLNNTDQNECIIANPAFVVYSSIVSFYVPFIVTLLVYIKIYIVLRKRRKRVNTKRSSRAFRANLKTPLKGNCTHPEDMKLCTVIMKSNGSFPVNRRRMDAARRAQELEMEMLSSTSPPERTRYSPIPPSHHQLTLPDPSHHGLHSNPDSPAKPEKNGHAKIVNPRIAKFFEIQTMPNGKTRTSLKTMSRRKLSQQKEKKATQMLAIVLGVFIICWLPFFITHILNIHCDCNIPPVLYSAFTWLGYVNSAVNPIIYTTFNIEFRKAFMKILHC
T2 sequence (P18901 whole entry): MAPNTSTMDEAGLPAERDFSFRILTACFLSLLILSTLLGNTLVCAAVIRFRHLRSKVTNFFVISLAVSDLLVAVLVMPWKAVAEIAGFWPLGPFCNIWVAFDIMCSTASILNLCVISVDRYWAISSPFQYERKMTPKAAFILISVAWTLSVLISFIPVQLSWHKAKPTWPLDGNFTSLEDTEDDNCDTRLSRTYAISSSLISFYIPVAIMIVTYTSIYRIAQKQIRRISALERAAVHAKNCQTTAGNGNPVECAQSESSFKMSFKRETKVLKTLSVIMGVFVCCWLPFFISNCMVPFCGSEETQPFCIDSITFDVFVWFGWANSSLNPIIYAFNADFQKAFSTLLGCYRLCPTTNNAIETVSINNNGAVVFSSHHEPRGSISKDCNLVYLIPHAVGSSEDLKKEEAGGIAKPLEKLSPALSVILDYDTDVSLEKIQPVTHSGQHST

As usually defined, the IC50 is the concentration at which inhibition is half-maximal. Low values mean greater potency in that assay, high ones weaker potency in that assay. Consider `CCN1CCC[C@H]1CNC(=O)c1c(O)ccc(I)c1OC`, for which the 50% inhibitory concentration (IC50) was 196 nM against D(2) dopamine receptor [1] and greater than 10000 nM against D(1A) dopamine receptor [2].
On to `CCN1CCC[C@H]1CNC(=O)c1c(OC)ccc(I)c1O` [IOLOPRIDE], for which the 50% inhibitory concentration (IC50) at D(1A) dopamine receptor [3] was greater than 10000 nM; on D(2) dopamine receptor [1], 1.71 nM; at D(1A) dopamine receptor [2], greater than 10000 nM; on D(2) dopamine receptor [4] it was 1.2 nM.
On D(1A) dopamine receptor [2], `CCN1CCC[C@H]1CNC(=O)c1c(O)c(Cl)cc(Cl)c1OC` [RACLOPRIDE] registered an IC50 greater than 10000 nM.
